Patent publication US4194009A, “Aryloxyphenylpropylamines for obtaining a psychotropic effect” (Eli Lilly and Company, priority 1976, dated 1980)

Columns and labels:
pigeons = assay: operant behavior, fixed-ratio, fixed interval schedule in pigeons; assay type: in vivo
anesthetized cats = assay: electrocardiogram (QRS complex) in anesthetized cats; conditions: intravenous injection
[1] = system: norepinephrine uptake by synaptosomes from rat brain; assay: blockage of norepinephrine uptake by synaptosomes from rat brain; assay type: biochemical
Text: (§1) This blockade is shown both in vitro with radioactive labelled compounds to determine the amount of monoamine uptake by synaptosomes from rat brain, and in vivo by a variety of methods. Among the physiologically active monoamines whose uptake is blocked by the compounds of this invention are included serotonin, norepinephrine and dopamine (3,4-dihydroxyphenylethylamine). […] Tables 1 and 2 which follow set forth the results of some of the in vitro determinations of the blockage of monoamine uptake by the compounds of this invention. In the tables, column 1 gives the R substituent on the 3-phenylpropylamine and columns 2-4, the concentration in micrograms per ml. that blocks the uptake of a particular amine by 50 percent for the amines--norephinephrine, serotonin, and dopamine. At the head of each column is given the concentration of the particular monoamine used in the experiment.

[2] = system: serotonin uptake by synaptosomes from rat brain; assay: blockage of serotonin uptake by synaptosomes from rat brain; assay type: biochemical; conditions: Table 1, serotonin 0.1 μM
Text: In the tables, column 1 gives the R substituent on the 3-phenylpropylamine and columns 2-4, the concentration in micrograms per ml. that blocks the uptake of a particular amine by 50 percent for the amines--norephinephrine, serotonin, and dopamine. At the head of each column is given the concentration of the particular monoamine used in the experiment.

[3] = system: dopamine uptake by synaptosomes from rat brain; assay: blockage of dopamine uptake by synaptosomes from rat brain; assay type: biochemical
Text: as §1

mice [4] = assay: apomorphine hypothermia antagonism test; assay type: in vivo; conditions: for antagonism of apomorphine hypothermia: in words
Description: (§2) The apomorphine hypothermia antagonism test is carried out as follows: mice are injected with a dose of apomorphine known to reduce body temperature approximately 4° C. The compound under test is injected 1/2 hour before the injection of the apomorphine and the temperatures measured 1/2 hour after injection. The degree of antagonism is expressed as a percent reduction (as compared with controls) of the temperature decrease produced by the injection of the apomorphine. The reserpine hypothermia reversal test is carried out as follows: groups of mice are injected with reserpine and 16.5 hours later are injected intraperitoneally with graded doses of the drug, a different dose level being given to each group of mice. Temperatures are measured at 1 hour after injection of the drug under test and again the effectiveness of the drug is expressed as a percentage decrease in the hypothermia induced by the injection of reserpine as compared with the control group. In the tables which follow, Table 4 gives the results in the apomorphine antagonism and reserpine reversal hypothermia tests for the secondary amines of this invention. In the table, the first column gives the substituent attached to the oxygen atom at the 3 position of the propylamine chain; columns 2 to 4 the percent antagonism against apomorphine hypothermia at dose levels of 0.3, 1 and 3 mg./kg. and columns 5-7 the percent reversal of reserpine hypothermia at the same dose levels.

mice [5] = assay: reserpine hypothermia reversal test; assay type: in vivo; conditions: for reversal of reserpine hypothermia: in words
Description: as §2

rats = assay: prevention of brain serotonin depletion caused by 4-chloroamphetamine; assay type: in vivo, rat; conditions: in words
Description: Following this injection, the protecting drug was injected at a dose of 15 mg./kg. of rat-weight intraperitoneally and determinations of brain serotonin levels were carried out 4 hours later.

[6] = prevention of brain monoamine depletion caused by α-ethyl-4-methyl-m-tyramine; assay type: in vivo; conditions: in words
isolated muscle strips [7] = assay: antihistaminic effect in isolated muscle strips; assay type: cell-based
isolated muscle strips [8] = assay: anticholinergic effect in isolated muscle strips; assay type: cell-based
isolated muscle strips [9] = assay: antiserotonin effect in isolated muscle strips; assay type: cell-based
[10] = Table 1, norepinephrine 0.48 μM
[11] = Table 5, mice, 1 mg./kg. intraperitoneally
[12] = Table 5, mice, 3 mg./kg. intraperitoneally
[13] = Table 5, mice, 10 mg./kg. intraperitoneally

## CNCCC(Oc1ccccc1OC)c1ccccc1 (centres unmarked) [o-anisyl, N-methyl 3-(o-methoxyphenoxy)-3-phenylpropylamine]
pigeons
  persistence of the effect on response rates: more than 24 hours

## COc1ccccc1OC(CCN)c1ccccc1 (centres unmarked) [3-(o-Methoxyphenoxy)-3-phenylpropylamine, 3-(o-methoxyphenoxy)-3-phenylpropylamine]
Anesthetized cats
  widening of the QRS complex of the electrocardiogram: affects the electrocardiogram similarly, but at far higher doses

## CCc1ccccc1OC(CCN(C)C)c1ccccc1 (centres unmarked) [o-ethylphenyl, N,N-dimethyl 3-(o-ethylphenoxy)-3-phenylpropylamine]
[1]; [10]
  Concentration in mcg./ml. that blocks 50% of amine uptake, Norepinephrine: > 100 µg/mL
[2]
  Concentration in mcg./ml. that blocks 50% of amine uptake, Serotonin: 3.5 µg/mL
[3]; Table 1, dopamine 0.2 μM
  Concentration in mcg./ml. that blocks 50% of amine uptake, Dopamine: > 100 µg/mL
Mice [4]; Table 5, mice, 3 mg./kg.
  Percent Antagonism Apomorphine Pre-30 min.: 20%
Mice [4]; Table 5, mice, 10 mg./kg.
  Percent Antagonism Apomorphine Pre-30 min.: 74%
Mice [5]; [11]
  Percent Antagonism Reserpine Post-60 min.: 17%
Mice [5]; [12]
  Percent Antagonism Reserpine Post-60 min.: 13%
Mice [5]; [13]
  Percent Antagonism Reserpine Post-60 min.: 35%

## CN(C)CCC(Oc1cccc2ccccc12)c1ccccc1 (stereo not drawn) [α-naphthyl, N,N-dimethyl 3-(α-naphthyloxy)-3-phenylpropylamine]
[1]; [10]
  Concentration in mcg./ml. that blocks 50% of amine uptake, Norepinephrine: 3 µg/mL
[2]
  Concentration in mcg./ml. that blocks 50% of amine uptake, Serotonin: .03 µg/mL
[3]; Table 1, dopamine 0.2 μM
  Concentration in mcg./ml. that blocks 50% of amine uptake, Dopamine: 2.5 µg/mL
Mice [4]; Table 5, mice, 1 mg./kg.
  Percent Antagonism Apomorphine Pre-30 min.: -17%
Mice [4]; Table 5, mice, 3 mg./kg.
  Percent Antagonism Apomorphine Pre-30 min.: -10%
Mice [4]; Table 5, mice, 10 mg./kg.
  Percent Antagonism Apomorphine Pre-30 min.: -7%
Mice [5]; [11]
  Percent Antagonism Reserpine Post-60 min.: 15%
Mice [5]; [12]
  Percent Antagonism Reserpine Post-60 min.: 4%
Mice [5]; [13]
  Percent Antagonism Reserpine Post-60 min.: 15%

## CN(C)CCC=C1c2ccccc2CCc2ccccc21 [amitriptyline, reference compound]
Mice [4]
  antagonism of apomorphine hypothermia: active
Mice [5]
  reversal of reserpine hypothermia: active
Anesthetized cats
  widening of the QRS complex of the electrocardiogram: causes a widening of the QRS complex

## NCCC(Oc1ccc(C(F)(F)F)cc1)c1ccccc1.O=C(O)C(=O)O (centres unmarked) [3-(p-trifluoromethylphenoxy)-3-phenylpropylamine oxalate]
rats
  prevention of serotonin depletion caused by 4-chloroamphetamine: gave similar results

## CN(C)CCC(Oc1ccc(C(F)(F)F)cc1)c1ccccc1 (centres unmarked) [p-trifluoromethylphenyl, N,N-dimethyl 3-(p-trifluoromethylphenoxy)-3-phenylpropylamine]
[1]; [10]
  Concentration in mcg./ml. that blocks 50% of amine uptake, Norepinephrine: 70 µg/mL
[2]
  Concentration in mcg./ml. that blocks 50% of amine uptake, Serotonin: .16 µg/mL
[3]; Table 1, dopamine 0.2 μM
  Concentration in mcg./ml. that blocks 50% of amine uptake, Dopamine: > 100 µg/mL
rats
  prevention of serotonin depletion caused by 4-chloroamphetamine: gave similar results
Mice [4]; Mus musculus, Table 4, mice, 1 mg./kg., read-out: Percent Antagonism Apomorphine Pre-30 min.
  inhibition in vivo at 1 mg/kg: 11%
Mice [4]; Mus musculus, Table 4, mice, 3 mg./kg., read-out: Percent Antagonism Apomorphine Pre-30 min.
  inhibition in vivo at 3 mg/kg: 25%
Mice [4]; Mus musculus, Table 5, mice, 3 mg./kg., read-out: Percent Antagonism Apomorphine Pre-30 min.
  inhibition in vivo at 3 mg/kg: 24%
Mice [5]; Mus musculus, ip, 1 h, Table 5, mice, 3 mg./kg. intraperitoneally, read-out: Percent Antagonism Reserpine Post-60 min.
  inhibition in vivo at 3 mg/kg: 20%

## CNCCC(Oc1ccc(C(F)(F)F)cc1)c1ccccc1 (centres unmarked) [p-trifluoromethylpenyl, N-methyl 3-(p-trifluoromethylphenoxy)-3-phenylpropylamine]
[1]; Table 2, norepinephrine 0.48 μM
  Concentration in mcg./ml. that blocks 50% of amine uptake, Norepinephrine: 20 µg/mL
[3]; Table 2, dopamine 0.2 μM
  Concentration in mcg./ml. that blocks 50% of amine uptake, Dopamine: > 100 µg/mL
rats
  prevention of serotonin depletion caused by 4-chloroamphetamine: prevented the depletion of serotonin
[6]
  depletion of norepinephrine by α-ethyl-4-methyl-m-tyramine: not the depletion of norepinephrine
  depletion of serotonin in the brain by α-ethyl-4-methyl-m-tyramine: prevented the depletion of serotonin in the brain

## CNCCCN1c2ccccc2CCc2ccccc21 [desmethylimipramine]
Mice [4]
  antagonism of apomorphine hypothermia: active
Mice [5]
  reversal of reserpine hypothermia: active
Isolated muscle strips [7]
  antihistaminic potency relative to N-methyl 3-(o-methoxyphenoxy)-3-phenylpropylamine: 150 times
Isolated muscle strips [8]
  anticholinergic potency relative to N-methyl 3-(o-methoxyphenoxy)-3-phenylpropylamine: 150 times
Isolated muscle strips [9]
  antiserotonin potency relative to N-methyl 3-(o-methoxyphenoxy)-3-phenylpropylamine: three times more potent
